Experimental data from ChEMBL document CHEMBL1201862, “PubChem BioAssay data set” (2004).
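Growth conditions: 96-well plates. Treatment: test compound, 48 hours, 5 concentrations. Analysis: linear interpolation between bracketing concentrations; unreached endpoints set to highest concentration. GI50 marks 50% less growth.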 Calls of active or inactive are those of the source. Rule as the data show it: active = GI50 up to about 1.1 µM and inactive = higher. Starred links: 1 amine or outer side, 2 acyl side, 3 side chain; linkers in the order of their positions; H or OH if unused. Non-standard residues stand in square brackets, D forms with d. Residues, ends and D or L forms follow the SMILES beside them. ξ: configuration not given here. Ile(3ξ) = CCC(C)[C@H](N)C(=O)O; X35 = C=CCC(O[*:1])C(=O)[*:2]; NMeV = CN[C@H](C(=O)O)C(C)C; NMeA = CN[C@@H](C)C(=O)O; βAla = NCCC(=O)O

Columns and labels:
Experiment in all cases: NCI tumour cell line growth inhibition, 48 h
[1] = tested on: DLD-1
[2] = tested on: XF498
[3] = tested on: DMS-114
[4] = tested on: KM-20L2
[5] = tested on: DMS-273
[6] = tested on: RXF 631
[7] = tested on: M19-MEL
[8] = tested on: SNB-78
[9] = tested on: LXFL 529

SMILES	GI50 [1]	GI50 [2]	GI50 [3]	GI50 [4]	GI50 [5]	GI50 [6]	GI50 [7]	GI50 [8]	GI50 [9]
CCN(CC)c1ccc(/N=C2\C=C(Cl)C(=O)c3ncccc32)c(C)c1	4.06 µM (inactive)	5.78 µM (inactive)	2.67 µM (inactive)	5.65 µM (inactive)	3.73 µM (inactive)	13.5 µM (inactive)	4.68 µM (inactive)	13.1 µM (inactive)	–
CS(=O)(=O)Sc1ccc(Cl)cc1	13.9 µM (inactive)	10.7 µM (inactive)	–	11.9 µM (inactive)	5.15 µM (inactive)	7.38 µM (inactive)	6.82 µM (inactive)	0.713 µM (active)	11.3 µM (inactive)
CC(C)NC1CCCCC2c3ccccc3C12O (centres undefined)	–	> 100 µM (inactive)	> 100 µM (inactive)	> 100 µM (inactive)	> 100 µM (inactive)	–	> 100 µM (inactive)	> 100 µM (inactive)	> 100 µM (inactive)
COc1ccc(O)c2c1C(=O)CCCC2=O	> 100 µM (inactive)	> 100 µM (inactive)	> 100 µM (inactive)	> 100 µM (inactive)	> 100 µM (inactive)	> 100 µM (inactive)	> 100 µM (inactive)	> 100 µM (inactive)	> 100 µM (inactive)
C/C(=N\NS(=O)(=O)c1ccc(C)cc1)C(CN1CCCCC1)C(c1ccccc1)c1c(O)c2ccccc2oc1=O (centres undefined)	> 100 µM (inactive)	> 100 µM (inactive)	–	> 100 µM (inactive)	–	–	–	> 100 µM (inactive)	> 100 µM (inactive)
C=CCC1OC(=O)CCNC(=O)[C@H](C)N(C)C(=O)[C@H](C(C)C)N(C)C(=O)[C@H](C(C)CC)NC(=O)[C@@H]2CCCN2C1=O (some centres undefined) (cyclo([Ile(3ξ)][NMeV][NMeA][βAla][X35]P))	10.4 µM (inactive)	3.65 µM (inactive)	7.5 µM (inactive)	3.18 µM (inactive)	3.63 µM (inactive)	4.92 µM (inactive)	5.96 µM (inactive)	> 100 µM (inactive)	3.94 µM (inactive)
COc1cc(/C=C/C(=O)c2sc(NNC(C)=O)nc2C)ccc1O	> 100 µM (inactive)	–	> 100 µM (inactive)	> 100 µM (inactive)	> 100 µM (inactive)	> 100 µM (inactive)	–	> 100 µM (inactive)	–
O=C1C(Cl)=C(Cl)C(=O)N1c1ccc(F)cc1 [FLUOROIMIDE]	18.2 µM (inactive)	19.9 µM (inactive)	19.7 µM (inactive)	22.1 µM (inactive)	25.8 µM (inactive)	28.9 µM (inactive)	19.5 µM (inactive)	27 µM (inactive)	15.9 µM (inactive)
Nc1nc(SCC(=O)c2ccccc2)c2[nH]cnc2n1	> 100 µM (inactive)	> 100 µM (inactive)	> 100 µM (inactive)	> 100 µM (inactive)	> 100 µM (inactive)	–	> 100 µM (inactive)	–	–
O=c1c(Sc2c(O)c3ccccc3c3ccccc3c2=O)c(O)c2ccccc2c2ccccc12	51.3 µM (inactive)	–	25.4 µM (inactive)	37.4 µM (inactive)	25.1 µM (inactive)	37.2 µM (inactive)	31.8 µM (inactive)	–	30 µM (inactive)
C1=c2ccccc2=C2C(=C(c3ccccc3)C(c3ccccc3)=NN2c2ccccc2)S1	> 100 µM (inactive)	–	> 100 µM (inactive)	> 100 µM (inactive)	> 100 µM (inactive)	–	> 100 µM (inactive)	> 100 µM (inactive)	> 100 µM (inactive)
CCCCCCCCCCCc1c(O)c(=O)c2c(oc3c(=O)c(CCCCCCCCCCC)c(O)c(=O)c3n2-c2ccc(N(C)C)cc2)c1=O	18.8 µM (inactive)	21.5 µM (inactive)	24.8 µM (inactive)	19.3 µM (inactive)	22.8 µM (inactive)	–	–	55.2 µM (inactive)	21.2 µM (inactive)
CCCCC[C@@H]1CCCC2NC(CCCCCO[Si](c3ccccc3)(c3ccccc3)C(C)(C)C)CCC21 (some centres undefined)	13.2 µM (inactive)	–	13 µM (inactive)	10.6 µM (inactive)	16.8 µM (inactive)	11.5 µM (inactive)	17.3 µM (inactive)	15.1 µM (inactive)	–
CCCCc1c2c(nc3c1CCC/C3=C\c1ccccc1)C(=O)C(CN(C)C)CC2 (centres undefined)	17.1 µM (inactive)	14.9 µM (inactive)	17.7 µM (inactive)	17.8 µM (inactive)	20.2 µM (inactive)	–	16.7 µM (inactive)	20.7 µM (inactive)	8.38 µM (inactive)
CCSc1nc(N2CCCC2)s[s+]1.[O-][Cl+3]([O-])([O-])[O-]	85.3 µM (inactive)	31 µM (inactive)	17.6 µM (inactive)	55.6 µM (inactive)	49.5 µM (inactive)	–	2.3 µM (inactive)	74.8 µM (inactive)	22.7 µM (inactive)
CN(C)c1nc(Oc2nc(N(C)C)nc(N(C)C)n2)nc(N(C)C)n1	> 100 µM (inactive)	84.7 µM (inactive)	51.4 µM (inactive)	> 100 µM (inactive)	61 µM (inactive)	–	82.4 µM (inactive)	61.4 µM (inactive)	> 100 µM (inactive)
C=CCc1cc(OC)c2c(c1)C(O)CC(c1ccc(OC)c(OC)c1)O2 (centres undefined)	> 100 µM (inactive)	–	59.8 µM (inactive)	> 100 µM (inactive)	> 100 µM (inactive)	–	> 100 µM (inactive)	> 100 µM (inactive)	> 100 µM (inactive)
O=C(CCCCCCCCC(=O)OCCCn1cc(C(=O)NC(=O)OCc2ccccc2)c(=O)[nH]c1=O)OCCCn1cc(C(=O)NC(=O)OCc2ccccc2)c(=O)[nH]c1=O	> 100 µM (inactive)	–	–	> 100 µM (inactive)	> 100 µM (inactive)	> 100 µM (inactive)	> 100 µM (inactive)	> 100 µM (inactive)	–
CC(O)C1OC(n2ccc(=O)[nH]c2=O)CC1n1cncn1 (centres undefined)	> 100 µM (inactive)	> 100 µM (inactive)	> 100 µM (inactive)	> 100 µM (inactive)	> 100 µM (inactive)	–	> 100 µM (inactive)	–	> 100 µM (inactive)
O=C(O)C12C3CCCC1C2CC3 (centres undefined)	> 100 µM (inactive)	> 100 µM (inactive)	> 100 µM (inactive)	> 100 µM (inactive)	–	> 100 µM (inactive)	> 100 µM (inactive)	> 100 µM (inactive)	> 100 µM (inactive)
O=C(O)CC(NC(=O)CP(=O)(O)O)C(=O)O (centres undefined)	66.4 µM (inactive)	596 µM (inactive)	741 µM (inactive)	158 µM (inactive)	119 µM (inactive)	–	97.9 µM (inactive)	973 µM (inactive)	–
